According to patent publication US20060281673A1, “Novel peptide inhibitor of hiv fusion that disrupts the internal trimeric coiled-coil of gp41” (priority 2003, published 2006):
Where “and” joins values, the source holds several entries; their conditions need not be identical. Identical values can stand only once. Entries after “also recorded” stand apart in the source; their conditions may differ.

Columns and labels:
[1] = biological target: T1, C34 peptide derived from the C-terminal region of gp41 (residues 628-661) (Human immunodeficiency virus type 1 group M subtype B, UniProt P04578); test: Interaction with C34 by analytical ultracentrifugation or CD; assay type: binding, HIV-1
T1 construct: the C34 peptide comprises residues 628-661 of the C-region of HIV-1 gp41; purchased Commonwealth Biotechnologies (Richmond, Va.); host or cells: solid-phase synthesis
Description: (§1) Circular Dichroism—CD spectra of peptides (at a concentration corresponding to 0.7-0.8 A280) were recorded at 25° C. on a JASCO J-720 spectropolarimeter using a 0.05-cm path length cell.
Sedimentation Equilibrium—Sedimentation equilibrium experiments were conducted at 20.0° C. and three different rotor speeds (16,000, 20,000, and 24,000) on a Beckman Optima XL-A analytical ultracentrifuge. Peptide samples were prepared in 50 mM sodium formate buffer (pH=3) and loaded into the ultracentrifuge cells at nominal loading concentrations of ˜0.2 and 0.7-0.8 A280. Data were analyzed in terms of a single ideal solute to obtain the buoyant molecular mass, M(1−νρ), using the Optima XL-A data analysis software (Beckman). […] J. Biochem. 157:169-180)).

[2] = Circular dichroism, secondary structure; assay type: physicochemical; details: CD at 25° C., program CDNN
Description: as §1

[3] = biological target: pre-hairpin intermediate of gp41 (Human immunodeficiency virus type 1 group M subtype B, UniProt P04578); design: species or system HIV-1
[4] = Sedimentation equilibrium (analytical ultracentrifugation), oligomeric state; assay type: physicochemical; details: 50 mM sodium formate pH 3, 20.0° C.
Source text: […]. J. Biochem. 157:169-180)).

[5] = system: HIV Env-mediated cell fusion; details: read-out: fails to inhibit fusion even at concentrations as high as

T1 sequence (P04578 628-661): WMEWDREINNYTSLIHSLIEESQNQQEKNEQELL
Sequence of pre-hairpin intermediate of gp41 (P04578 512-856): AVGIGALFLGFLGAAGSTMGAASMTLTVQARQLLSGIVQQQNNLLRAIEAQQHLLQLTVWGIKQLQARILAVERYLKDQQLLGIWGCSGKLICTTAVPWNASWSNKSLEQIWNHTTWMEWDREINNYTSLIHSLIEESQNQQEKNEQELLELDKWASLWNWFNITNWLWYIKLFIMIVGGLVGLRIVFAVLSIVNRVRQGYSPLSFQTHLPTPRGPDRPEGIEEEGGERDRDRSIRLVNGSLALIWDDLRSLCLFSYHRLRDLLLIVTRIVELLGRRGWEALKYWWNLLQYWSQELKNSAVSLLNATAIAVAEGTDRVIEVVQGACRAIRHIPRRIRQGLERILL

| Substance | interaction with C34 [1] | helical content [2] | optimized value of β (heterotrimerization with gp41 relative to Kref^trimer) [3] | oligomeric state in solution [4] | IC50 [5] |
| --- | --- | --- | --- | --- | --- |
| Ac-SGIDQEQNNLTRLIEAQIHELQLTQWKIKQLLARIL-NH2 [N36^Mut(e,g)] | does not interact with C34; also recorded: No evidence of interaction | ~80% | 2.97 and 5.76 | monodisperse, helical trimer | – |
| SGIVQQLNNQLRAEEANQHLEQLSVWGSKQNQARRL; peptide derived from N36 with nine substitutions at positions a and d of the helical wheel (SGIVQQLNNQLRAEEANQHLEQLSVWGSKQNQARRL) [N36^Mut(a,d)] | does not interact with the C34 peptide; also recorded: No evidence of interaction | ~20% | – | monomeric; also recorded: monomer | > 100 µM |
